# Measurements as given in patent US11976083B2, “Inhibitors of peptidylarginine deiminases” (Gilead Sciences, Inc., priority 2020, dated 2024).
# Molecular target: T1, human PAD4 (Homo sapiens, UniProt Q9UM07)
# T1 construct: human PAD4 (NM_012387), A2-P663, was PCR amplified; His-SUMO (N, cleaved yes); made in house; host or cells: E. coli BL21(DE3)
# Experiment: In vitro PAD4 BAEE biochemical assay
# Conditions: BAEE substrate 3 mM, 5 nM PAD4, 2 mM calcium chloride; geometric mean of multiple experiments
# Outline: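 Assay was run at 25 °C using 3 mM BAEE and 5 nM human PAD4 after a 30 min compound preincubation; ammonia produced over 2 h was quantified by OPA-derived fluorescence. Full inhibition was defined by 50 µM BB-Cl-Amidine, and IC50 came from variable-slope nonlinear regression.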
# T1 sequence (Q9UM07 2-663): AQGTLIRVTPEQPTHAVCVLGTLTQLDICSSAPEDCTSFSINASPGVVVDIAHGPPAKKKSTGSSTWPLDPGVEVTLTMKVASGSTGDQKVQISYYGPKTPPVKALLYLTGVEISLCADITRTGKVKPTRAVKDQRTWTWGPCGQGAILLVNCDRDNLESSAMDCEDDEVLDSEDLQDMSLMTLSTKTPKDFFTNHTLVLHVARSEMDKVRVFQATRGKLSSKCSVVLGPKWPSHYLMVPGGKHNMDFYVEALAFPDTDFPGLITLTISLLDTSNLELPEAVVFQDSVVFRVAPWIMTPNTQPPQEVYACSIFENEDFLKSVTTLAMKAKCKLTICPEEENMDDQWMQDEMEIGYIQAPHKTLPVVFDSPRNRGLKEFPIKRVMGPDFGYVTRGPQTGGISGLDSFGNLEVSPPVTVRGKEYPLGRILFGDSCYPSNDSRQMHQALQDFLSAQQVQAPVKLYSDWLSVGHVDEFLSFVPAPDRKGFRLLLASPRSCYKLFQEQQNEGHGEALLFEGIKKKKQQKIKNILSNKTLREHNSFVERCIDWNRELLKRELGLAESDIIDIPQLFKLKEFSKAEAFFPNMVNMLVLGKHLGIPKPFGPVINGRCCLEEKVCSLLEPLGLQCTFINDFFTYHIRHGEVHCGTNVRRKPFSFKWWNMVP
row,IC50 [nM],Compound
1,56,"C[C@H]1NC(=O)[C@@]2(C)C[C@@H]2CCCCCn2c(-c3nc4cc(C(=O)N[C@H]5CNCC[C@@H]5F)c(F)cc4n3C3CC3)cc3ccc1nc32 [Example 545, 1-cyclopropyl-2-[(2~ {R},5~{S},7~{S})-2,5-dimethyl-4-oxo-3,13,19-triazatetracyclo[11.5.2.0^ {5,7}.0^{16,20}]icosa-1(19),14,16(20), 17-tetraen-14-yl]-6-fluoro-~{N}-[(3~ {S},4~{S})-4-fluoro-3-piperidyl]benzimidazole-5-carboxamide]"
2,31,"C[C@H]1NC(=O)[C@@H]2C[C@H]2CCCCCn2c(-c3nc4cc(C(=O)N[C@H]5CNCC[C@@H]5F)c(F)cc4n3C)cc3ccc1nc32 [Example 242, 6-fluoro-~{N}-[(3~{S},4~{S})-4-fluoro-3-piperidyl]-1-methyl-2-[(2~{R},5~{R},7~{R})-2-methyl-4-oxo-3,13,19-triazatetracyclo[11.5.2.0^{5,7}.0^{16,20}]icosa-1(19),14,16(20),17-tetraen-14-yl]benzimidazole-5-carboxamide]"
3,32,"COc1cc(C(=O)N2C[C@H](N)[C@@H]3CC[C@H]2C3)cc2nc(-c3cc4ccc5nc4n3CC(F)(F)CCC[C@@H]3C[C@H]3C(=O)N[C@@H]5C)n(C)c12 [Example 442, (2~{R},5~{R},7~{R})-14-[5-[(1~{S),4~{R},5~{R})-4-amino-2-azabicyclo[3.2.1]octane-2-carbonyl]-7-methoxy-1-methyl-benzimidazol-2-yl]-11,11-difluoro-2-methyl-3,13,19-triazatetracyclo[11.5.2.0^{5,7).0^{16,20}] icosa-1(19),14,16(20),17-tetraen-4-one]"
4,19,"COc1cc(C(=O)N2C[C@H](N)[C@@H]3CC[C@H]2C3)cc2nc(-c3cc4ccc5nc4n3CCCCC[C@@]3(F)C[C@H]3C(=O)N[C@@H]5C)n(C)c12 [Example 711, (2~{R},5~{S},7~{R})-14-[5-[(1~{S),4~{R},5~{R})-4-amino-2-azabicyclo[3.2.1]octane-2-carbonyl]-7-methoxy-1-methyl-benzimidazol-2-yl]-7-fluoro-2-methyl-3,13,19-triazatetracyclo[11.5.2.0^ {5,7}.0^{16,20}]icosa-1(19), 14,16(20),17-tetraen-4-one]"
5,29,"C[C@H]1NC(=O)c2nccnc2CCCCCn2c(-c3nc4cc(C(=O)N5C[C@H](N)[C@@H]6CC[C@H]5C6)cc(F)c4n3C3CC3)cc3ccc1nc32 [Example 485, (2~{R})-17-[5-[(1~{S),4~{R},5~{R})-4-amino-2-azabicyclo[3.2.1]octane-2-carbonyl]-1-cyclopropyl-7-fluoro-benzimidazol-2-yl]-2-methyl-3,6,9,16,22-pentazatetracyclo[14.5.2.0^{5,10}.0^{19, 23}]tricosa-1(22),5(10),6,8,17,19(23),20-heptaen-4-one]"
6,230,"COC[C@@]12C[C@@H]1CCCCCn1c(-c3nc4cc(C(=O)N5CC[C@@H](OC)[C@@H](N)C5)cc(OC)c4n3C)cc3ccc(nc31)[C@@H](C)NC2=O [Example 865, (2~{R},5~{R},7~{S})-14-[5-[(3~{S},4~{R})-3-amino-4-methoxy-piperidine-1-carbonyl]-7-methoxy-1-methyl-benzimidazol-2-yl]-5-(methoxymethyl)-2-methyl-3,13,19-triazatetracyclo[11.5.2.0^ {5,7}.0^{16,20}]icosa-1(19), 14,16(20),17-tetraen-4-one]"
7,31,"C[C@H]1NC(=O)C(C)(C)CCCCCCn2c(-c3nc4cc(C(=O)N5C[C@H](N)[C@@H]6CC[C@H]5C6)cc(F)c4n3C3CC3)cc3ccc1cc32 [Example 462, (11~{R})-17-[5-[(1~{S},4~{R},5~{R})-4-amino-2-azabicyclo[3.2.1]octane-2-carbonyl]-1-cyclopropyl-7-fluoro-benzimidazol-2-yl]-8,8,11-trimethyl-1,10-diazatricyclo[10.5.2.0^{15,18}]nonadeca-12(19),13,15(18),16-tetraen-9-one]"
8,44,"COc1cc(C(=O)N2CC[C@@H](OC)[C@@H](N)C2)cc2nc(-c3cc4ccc5nc4n3CCCCCC[C@]3(CCCO3)C(=O)N[C@@H]5C)n(C)c12 [Example 686, (8~{S},11~{R})-17-[5-[(3~{S},4~{R})-3-amino-4-methoxy-piperidine-1-carbonyl]-7-methoxy-1-methyl-benzimidazol-2-yl]-11-methyl-spiro[1,10,19-triazatricyclo [10.5.2.0^{15,18}]nonadeca-12(19),13,15(18),16-tetraene-8,2′-tetrahydrofuran]-9-one]"
9,34,"COc1cc(C(=O)N2[C@H]3CC[C@@H]2[C@H](N)C3)cc2nc(-c3cc4ccc5nc4n3C[C@H]3C[C@H]3COCCC(=O)N[C@@H]5C)n(C)c12 [Example 336, (3~{S),5~{R},12~{R})-18-[5-[(1~{R},2~{R},4~{S})-2-amino-7-azabicyclo[2.2.1]heptane-7-carbonyl]-7-methoxy-1-methyl-benzimidazol-2-yl]-12-methyl-7-oxa-1,11,20-triazatetracyclo[11.5.2.0^{3,5}.0^{16,19}] icosa-13(20),14,16(19),17-tetraen-10-one]"
10,76,"COCCO[C@@H]1CCN(C(=O)c2cc(OC)c3c(c2)nc(-c2cc4ccc5nc4n2CCCCC[C@@H]2C[C@H]2C(=O)N[C@@H]5C)n3C)C[C@@H]1N [Example 493, (2~{R},5~{R},7~{R})-14-[5-[(3~{S},4~{R})-3-amino-4-(2-methoxyethoxy)piperidine-1-carbonyl]-7-methoxy-1-methyl-benzimidazol-2-yl]-2-methyl-3,13,19-triazatetracyclo [11.5.2.0^{5,7}.0^{16,20}] icosa-1(19),14,16(20), 17-tetraen-4-one]"
11,53,"CO[C@@H]1CCN(C(=O)c2cc3nc(-c4cc5ccc6nc5n4CCCCC[C@@H]4C[C@H]4C(=O)N[C@@H]6C)n(C4CC4)c3cc2F)C[C@@H]1N [Example 572, (2~{R},5~{R},7~{R})-14-[5-[(3~{S},4~{R})-3-amino-4-methoxy-piperidine-1-carbonyl]-1-cyclopropyl-6-fluoro-benzimidazol-2-yl]-2-methyl-3,13,19-triazatetracyclo [11.5.2.0^{5,7}.0^{16,20}] icosa-1(19),14,16(20), 17-tetraen-4-one]"
12,34,"C[C@H]1NC(=O)c2ccc(Cl)nc2CC[C@@H]2C[C@H]2Cn2c(-c3nc4cc(C(=O)N5C[C@H](N)[C@@H]6CC[C@H]5C6)cc(F)c4n3C3CC3)cc3ccc1nc32 [Example 879, (3~{R},5~{R},16~{R})-22-[5-[(1~{S},4~{R}, 5~{R})-4-amino-2-azabicyclo[3.2.1]octane-2-carbonyl]-1-cyclopropyl-7-fluoro-benzimidazol-2-yl]-10-chloro-16-methyl-1,9,15,24-tetrazapentacyclo[15.5.2.0^ {3,5}.0^{8,13}.0^{20,23}] tetracosa-8(13),9,11,17(24), 18,20(23),21-heptaen-14-one]"
13,108,"COc1cc(C(=O)N2CC[C@@H](OC(F)F)[C@@H](N)C2)cc2nc(-c3cc4ccc5nc4n3CCCCCC[C@@H](OC)C(=O)N[C@@H]5C)n(C)c12 [Example 629, (8~{R},11~{R})-17-[5-[(3~ {S},4~{R})-3-amino-4-(difluoromethoxy)piperidine-1-carbonyl]-7-methoxy-1-methyl-benzimidazol-2-yl]-8-methoxy-11-methyl-1,10,19-triazatricyclo [10.5.2.0^{15,18}]nonadeca-12(19),13,15(18),16-tetraen-9-one]"
14,60,"COc1cc(C(=O)N2CCC[C@@H](N)C2)cc2nc(-c3cc4ccc5nc4n3C[C@H]3C[C@H]3CCCC(C)(C)C(=O)N[C@@H]5C)n(C)c12 [Example 119, (3~{S},5~{R},12~{R})-18-[5-[(3~{R})-3-aminopiperidine-1-carbonyl]-7-methoxy-1-methyl-benzimidazol-2-yl]-9,9,12-trimethyl-1,11,20-triazatetracyclo[11.5.2.0^{3,5}.0^{16,19}] icosa-13(20),14,16(19),17-tetraen-10-one]"
15,50,"C[C@H]1NC(=O)[C@H]2C[C@@H]2C/C=C/C(F)(F)Cn2c(-c3nc4cc(C(=O)N[C@H]5CNCC[C@@H]5F)c(F)c(F)c4n3C)cc3ccc1nc32 [Example 547, 2-[(2~{R},5~{S},7~ {S},9~{E})-11,11-difluoro-2-methyl-4-oxo-3,13,19-triazatetracyclo [11.5.2.0^{5,7}.0^{16,20}]icosa-1(19),9,14,16(20), 17-pentaen-14-yl]-6,7-difluoro-~ {N}-[(3~{S},4~{S})-4-fluoro-3-piperidyl]-1-methyl-benzimidazole-5-carboxamide]"
16,22,"COc1cc(C(=O)N2[C@H]3CC[C@@H]2[C@H](N)C3)cc2nc(-c3cc4ccc5nc4n3CCCCCCN(C)C(=O)N[C@@H]5C)c(C)n12 [Example 212, (11~{R})-17-[7-[(1~{R},2~{R},4~{S})-2-amino-7-azabicyclo[2.2.1]heptane-7-carbonyl]-5-methoxy-3-methyl-imidazo[1,2-a]pyridin-2-yl]-8,11-dimethyl-1,8,10,19-tetrazatricyclo[10.5.2.0^{15,18}]nonadeca-12(19),13,15(18),16-tetraen-9-one]"
17,26,"[2H]C1([2H])CCCC[C@@H]2C[C@H]2C(=O)N[C@H](C)c2ccc3cc(-c4nc5cc(C(=O)N6C[C@H](N)[C@@H]7CC[C@H]6C7)cc(F)c5n4C4CC4)n1c3n2 [Example 482, (2~{R},5~{R},7~{R})-14-[5-[(1~{S},4~{R},5~{R})-4-amino-2-azabicyclo[3.2.1]octane-2-carbonyl]-1-cyclopropyl-7-fluoro-benzimidazol-2-yl]-12,12-dideuterio-2-methyl-3,13,19-triazatetracyclo[11.5.2.0^{5,7}.0^{16,20}] icosa-1(19),14,16(20),17-tetraen-4-one]"
